Measurements published in PubChem BioAssay (NCI).
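Exposure lasted 48 hours, with cells grown in 96-well plates and compounds tested at five concentrations. TGI: concentration producing complete growth inhibition.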

Legend:
Test in all cases: DTP human tumour cell line panel, 48 h
CAKI-1 renal = system: CAKI-1 renal
COLO 205 colon = system: COLO 205 colon
DU-145 prostate = system: DU-145 prostate
HL-60(TB) leukemia = system: HL-60(TB) leukemia
IGROV1 ovarian = system: IGROV1 ovarian
K-562 leukemia = system: K-562 leukemia
MDA-MB-231 breast = system: MDA-MB-231 breast
NCI-H226 lung = system: NCI-H226 lung
NCI-H522 lung = system: NCI-H522 lung
SK-MEL-5 melanoma = system: SK-MEL-5 melanoma
SNB-19 CNS = system: SNB-19 CNS

Structure (SMILES) | TGI (CAKI-1 renal) [µM] | TGI (COLO 205 colon) [µM] | TGI (DU-145 prostate) [µM] | TGI (HL-60(TB) leukemia) [µM] | TGI (IGROV1 ovarian) [µM] | TGI (K-562 leukemia) [µM] | TGI (MDA-MB-231 breast) [µM] | TGI (NCI-H226 lung) [µM] | TGI (NCI-H522 lung) [µM] | TGI (SK-MEL-5 melanoma) [µM] | TGI (SNB-19 CNS) [µM]
CCN(CC)CCN(C)c1ccc(CO)c2c1C(=O)c1ccccc1S2=O (configuration not stated) | 26.2 | 21.6 | 28.3 | 51.8 | 32.8 | > 20.3 | 7.7 | 33.6 | 4.23 | 6.52 | 26.9
COc1cccc(C2SC(N)=Nc3c2c(C)nn3C(=O)Cc2ccccc2)c1 (configuration not stated) | > 100 | > 100 | > 100 | > 100 | > 100 | > 100 | > 100 | > 100 | > 100 | > 100 | > 100
COc1cccc(/C=C2\S/C(=N/Nc3nc(C)c(C)s3)NC2=O)c1O | > 100 | > 100 | > 100 | > 100 | > 100 |  | > 100 | > 100 |  | > 100 | > 100
CCOP(=O)(OCC)C(NC(=O)C(C(F)(F)F)C(F)(F)F)c1ccccc1 (configuration not stated) | > 100 | > 100 | > 100 | 67.9 | > 100 | > 100 | > 100 |  |  | > 100 | > 100
Clc1ccc(CCN[C@H]2CCCC[C@H]2N2CCCC2)cc1Cl | > 100 | 29.8 | 59.8 | 50 | 35.1 | > 100 | > 100 | 48.7 | 32.9 | 28.5 | 69.5
CC(C)CC(N)C(=O)Nc1ccc2ccccc2c1 (configuration not stated) | > 100 | > 100 | > 100 | > 100 | > 100 | > 100 | > 100 | > 100 | > 100 | > 100 | > 100
CC(=O)OCC1OC(n2c3c(c(-c4ccc(Cl)cc4)c(C#N)c2=S)CCCC3)C(OC(C)=O)C(OC(C)=O)C1OC(C)=O (configuration not stated) |  | > 100 | > 100 | > 100 | > 100 | > 100 | > 100 | > 100 | > 100 | 58.6 | > 100
Nc1ncnc2c1ncn2C1CCC(CP(=O)(O)O)C1 (configuration not stated) |  | > 100 | > 100 | > 100 | > 100 |  | > 100 | > 100 |  | > 100 | > 100
Fc1ccc2c3c([nH]c2c1)CCN(Cc1ccccc1)C3 |  | 39.4 | 70.9 | 37.6 | 42.5 | 41 | 43.8 | 39.5 |  | 38.8 | 30.8
O=C(CSCC(=O)N/N=C\c1cccc([N+](=O)[O-])c1)N/N=C\c1cccc([N+](=O)[O-])c1 | 64.4 | > 100 | > 100 | > 100 | 68.7 |  | 53.8 | > 100 | > 100 | > 100 | > 100
CC(=O)NCC1OC2COC(c3ccccc3)OC2C(NC(=O)c2ccccc2)C1OC(=O)c1ccccc1 (configuration not stated) | > 100 | > 100 | > 100 | > 100 |  | > 100 | > 100 | > 100 |  | > 100 | > 100
CCOP(=O)(OCC)C(C(=O)OC)C(=O)C(=O)Nc1cccc(O)c1 (configuration not stated) | > 100 | > 100 | > 100 |  | > 100 |  | > 100 | > 100 | > 100 | > 100 | > 100
CC(=O)O[C@H]1C(=O)[C@@]2(C)[C@H]([C@H](OC(=O)c3ccccc3)[C@]3(O)C[C@H](OC(=O)[C@H](O)[C@@H](NC(=O)c4ccco4)c4ccccc4)C(C)=C1C3(C)C)[C@]1(OC(C)=O)CO[C@@H]1C[C@@H]2O | > 12.5 |  | > 12.5 | < 0.00125 | > 12.5 | < 0.00125 | > 12.5 |  | > 12.5 | > 12.5 | > 12.5
C=C(C(=O)OC)[C@@H]1C[C@@H](OC(C)=O)C2=C[C@H](C[C@@]3(C)O[C@@H]3C3=CC(C)=C(O3)[C@H]1OC(C)=O)OC2=O | 21.2 | 25.8 | > 100 |  | 57.1 | 24.9 | 44.1 | > 100 | 5.83 | 29.7 | > 100
CCOC(=O)/C(=N/Nc1ccccc1)N1C(=S)C=C(C)NN(C)C1=S | > 100 | > 100 | > 100 | > 100 | > 100 | > 100 | > 100 |  | > 100 | > 100 | > 100
CN(CCCNC(=O)c1cn(C)c2c1Cc1ccccc1-2)CCCNC(=O)c1cn(C)c2c1Cc1ccccc1-2 | 28.4 | 4.05 |  | 28.6 | 21.8 | 17 | 27.4 | 41.4 |  | 28.4 | 24.1
CC(=O)OCC(=O)OC[C@H](OCc1ccccc1)[C@@H]1[C@H](OC(C)=O)C(=O)N1Cc1ccccc1 |  | > 100 | > 100 |  | > 100 | > 100 | > 100 | > 100 |  | > 100 | > 100
O=C1NN(Cc2ccccc2)C(=O)N2CCC[C@@H]12 | > 100 | > 100 | > 100 | > 100 | > 100 |  | > 100 | > 100 |  | > 100 | > 100
CC(Nc1ccc(Cl)c(Cl)c1)c1ccncc1 (configuration not stated) | 97.8 | 31.4 | 89.7 |  | 50.7 | > 100 | 45.1 | 81.6 | 37 | 30.3 | > 100
O=C1/C(=C/c2ccccc2[N+](=O)[O-])N=C(c2ccccc2)N1c1nc2ccccc2s1 | > 100 |  | 47.6 | 57.1 | 33.7 | 44.7 | > 100 | > 100 | 40.1 | > 100 | > 100
CCOC(=O)/C=C(/C(=O)OCC)n1ccc(=O)n(Cc2cnnn2COCCOC(C)=O)c1=O | 11.4 | 9.73 | 42.9 |  | 39.3 | > 100 | 38.7 | 57.3 | 4.65 | 38.2 | > 31.6
